According to patent publication US20220117266A1, “NICKEL CHELATION THERAPY” (priority 2019, published 2022):

Key:
[1] = test system: S. Typhimurium ATCC 700408; test: Biofilm inhibition assay (crystal violet); type: cell-based, Salmonella enterica serovar Typhimurium; conditions: 18 hours with DMG
Method: (§1) Biofilm inhibition assay. S. Typhimurium and K. pneumoniae cultures were adjusted to an optical density (OD600) of 0.1 in fresh LB broth. H. pylori culture was adjusted to an OD600 of 0.15 in brain heart infusion (BHI) supplemented with 0.4% β-cyclodextran. […] Plates containing S. Typhimurium and K. pneumoniae were incubated at 37° C. aerobically without shaking for 18 hours. Plates containing H. pylori were incubated at 37° C. microaerobically without shaking for 48 hours. After incubation with (Na2DMG) a crystal violet biofilm assay was performed as previously described with modifications (Kwasny et al. 2010. Current Protocols in Pharmacology 50:13A. 8.1-13A. 8.23). Briefly, supernatant was removed from the wells. Next, adherent cells were gently washed with phosphate-buffered saline (PBS) and allowed to air dry for 15 minutes. Cells were then heat fixed for one hour at 60° C. before staining with 0.5% crystal violet for 5 minutes. After the crystal violet was thoroughly washed from the wells with distilled deionized water, cells were air dried for 15 minutes. Acetic acid (33%) was then added to the wells to solubilize the crystal violet. The crystal violet-acetic acid solution was transferred to a clean 96 well plate and the OD600 was measured.

[2] = test system: Helicobacter pylori 43504; test: Biofilm inhibition assay (crystal violet); type: cell-based; conditions: 48 hours with DMG
Method: as §1

[3] = test system: Klebsiella pneumoniae ATCC BAA2472; test: Biofilm inhibition assay (crystal violet); type: cell-based; conditions: 18 hours with DMG
Method: as §1

C. jejuni 81-176 = test: Growth inhibition, liquid 96-well checkerboard (OD600, MIC, MBC); type: cell-based, Campylobacter jejuni; conditions: 24 h
Method: Growth inhibition assays: liquid (96-well) plates experiments. This type of experiment can only be conducted with C. jejuni since the gas requirement for C. concisus (H2-enriched microaerobic) is not compatible with the use of 96-well plates. C. jejuni cells were grown as described above, harvested, and resuspended in sterile NaCl (8 g/L) to an OD600 of 0.1, corresponding approximately to 5×10^8 to 1×10^9 cells/mL. […] Wells were serially (2-fold) diluted in each direction (horizontal and vertical) to introduce all combinations. Wells with no DMG or metal compounds served as (positive) growth controls, and wells with no bacteria served as background (negative growth) controls. A typical protocol and loading plan are described in Table 7. The starting inoculum was at OD600 of 0.05, which corresponds approximately to 2.5×10^8 cells/mL to 5×10^8 cells/mL. After 24 hours incubation under microaerobic conditions at 37° C., OD600 was recorded using a 96 well-plate reader (Microtek). […] Resulting growth (or lack of growth) was examined after overnight culturing; the lowest concentration that inhibits 99.9% of the original culture was defined as MBC. MIC and MBC were determined based on tests (plates) done in triplicate.

For `CC(=NO)C(C)=NO` [DMG, dimethylglyoxime], the biofilm formation [1] was “able to inhibit biofilm formation”, the biofilm formation [2] was “able to inhibit biofilm formation” and the biofilm formation [3] was “able to inhibit biofilm formation”. The OD600 (C. jejuni 81-176; DMG 0.062 mM + CuSO4 0 uM) was 0.31, the OD600 (C. jejuni 81-176; DMG 0.062 mM + CuSO4 2 uM) was 0.37 and the OD600 (C. jejuni 81-176; DMG 0.062 mM + CuSO4 4 uM) was 0.31. The OD600 (C. jejuni 81-176; DMG 0.062 mM + CuSO4 8 uM) was 0.33, the OD600 (C. jejuni 81-176; DMG 0.062 mM + CuSO4 16 uM) was 0.34 and the OD600 (C. jejuni 81-176; DMG 0.062 mM + CuSO4 32 uM) was 0.24. It also gave an OD600 (C. jejuni 81-176; DMG 0.062 mM + CuSO4 64 uM) of 0.22, an OD600 (C. jejuni 81-176; DMG 0.062 mM + CuSO4 128 uM) of 0.24 and an OD600 (C. jejuni 81-176; DMG 0.062 mM + CuSO4 256 uM) of 0.35. The OD600 (C. jejuni 81-176; DMG 0.062 mM + CuSO4 512 uM) was 0.34, the OD600 (C. jejuni 81-176; DMG 0.062 mM + CuSO4 1024 uM) was 0.47 and the OD600 (C. jejuni 81-176; DMG 0.125 mM + CuSO4 0 uM) was 0.25. It also gave an OD600 (C. jejuni 81-176; DMG 0.125 mM + CuSO4 2 uM) of 0.31, an OD600 (C. jejuni 81-176; DMG 0.125 mM + CuSO4 4 uM) of 0.27 and an OD600 (C. jejuni 81-176; DMG 0.125 mM + CuSO4 8 uM) of 0.31. The OD600 (C. jejuni 81-176; DMG 0.125 mM + CuSO4 16 uM) was 0.33, the OD600 (C. jejuni 81-176; DMG 0.125 mM + CuSO4 32 uM) was 0.26 and the OD600 (C. jejuni 81-176; DMG 0.125 mM + CuSO4 64 uM) was 0.23. For the same molecule, the OD600 (C. jejuni 81-176; DMG 0.125 mM + CuSO4 128 uM) was 0.24, the OD600 (C. jejuni 81-176; DMG 0.125 mM + CuSO4 256 uM) was 0.27 and the OD600 (C. jejuni 81-176; DMG 0.125 mM + CuSO4 512 uM) was 0.34. The OD600 (C. jejuni 81-176; DMG 0.125 mM + CuSO4 1024 uM) was 0.47, the OD600 (C. jejuni 81-176; DMG 0.25 mM + CuSO4 0 uM) was 0.26 and the OD600 (C. jejuni 81-176; DMG 0.25 mM + CuSO4 2 uM) was 0.31. It also gave an OD600 (C. jejuni 81-176; DMG 0.25 mM + CuSO4 4 uM) of 0.24, an OD600 (C. jejuni 81-176; DMG 0.25 mM + CuSO4 8 uM) of 0.37 and an OD600 (C. jejuni 81-176; DMG 0.25 mM + CuSO4 16 uM) of 0.33. The OD600 (C. jejuni 81-176; DMG 0.25 mM + CuSO4 32 uM) was 0.25, the OD600 (C. jejuni 81-176; DMG 0.25 mM + CuSO4 64 uM) was 0.22 and the OD600 (C. jejuni 81-176; DMG 0.25 mM + CuSO4 128 uM) was 0.24. The OD600 (C. jejuni 81-176; DMG 0.25 mM + CuSO4 256 uM) was 0.24, the OD600 (C. jejuni 81-176; DMG 0.25 mM + CuSO4 512 uM) was 0.27 and the OD600 (C. jejuni 81-176; DMG 0.25 mM + CuSO4 1024 uM) was 0.30. The OD600 (C. jejuni 81-176; DMG 0.5 mM + CuSO4 0 uM) was 0.22, the OD600 (C. jejuni 81-176; DMG 0.5 mM + CuSO4 2 uM) was 0.31 and the OD600 (C. jejuni 81-176; DMG 0.5 mM + CuSO4 4 uM) was 0.25. For the same molecule, the OD600 (C. jejuni 81-176; DMG 0.5 mM + CuSO4 8 uM) was 0.23, the OD600 (C. jejuni 81-176; DMG 0.5 mM + CuSO4 16 uM) was 0.34 and the OD600 (C. jejuni 81-176; DMG 0.5 mM + CuSO4 32 uM) was 0.21. For the same molecule, the OD600 (C. jejuni 81-176; DMG 0.5 mM + CuSO4 64 uM) was 0.19, the OD600 (C. jejuni 81-176; DMG 0.5 mM + CuSO4 128 uM) was 0.20 and the OD600 (C. jejuni 81-176; DMG 0.5 mM + CuSO4 256 uM) was 0.29. For the same molecule, the OD600 (C. jejuni 81-176; DMG 0.5 mM + CuSO4 512 uM) was 0.14, the OD600 (C. jejuni 81-176; DMG 0.5 mM + CuSO4 1024 uM) was 0.09 and the OD600 (C. jejuni 81-176; DMG 1 mM + CuSO4 0 uM) was 0.20. It also gave an OD600 (C. jejuni 81-176; DMG 1 mM + CuSO4 2 uM) of 0.27, an OD600 (C. jejuni 81-176; DMG 1 mM + CuSO4 4 uM) of 0.23 and an OD600 (C. jejuni 81-176; DMG 1 mM + CuSO4 8 uM) of 0.21. It also gave an OD600 (C. jejuni 81-176; DMG 1 mM + CuSO4 16 uM) of 0.37, an OD600 (C. jejuni 81-176; DMG 1 mM + CuSO4 32 uM) of 0.24 and an OD600 (C. jejuni 81-176; DMG 1 mM + CuSO4 64 uM) of 0.19. It also gave an OD600 (C. jejuni 81-176; DMG 1 mM + CuSO4 128 uM) of 0.10, an OD600 (C. jejuni 81-176; DMG 1 mM + CuSO4 256 uM) of 0.02 and an OD600 (C. jejuni 81-176; DMG 1 mM + CuSO4 512 uM) of 0.02. It also gave an OD600 (C. jejuni 81-176; DMG 1 mM + CuSO4 1024 uM) of 0.04, an OD600 (C. jejuni 81-176; DMG 2 mM + CuSO4 0 uM) of 0.24 and an OD600 (C. jejuni 81-176; DMG 2 mM + CuSO4 2 uM) of 0.34. For the same molecule, the OD600 (C. jejuni 81-176; DMG 2 mM + CuSO4 4 uM) was 0.25, the OD600 (C. jejuni 81-176; DMG 2 mM + CuSO4 8 uM) was 0.26 and the OD600 (C. jejuni 81-176; DMG 2 mM + CuSO4 16 uM) was 0.24. It also gave an OD600 (C. jejuni 81-176; DMG 2 mM + CuSO4 32 uM) of 0.17, an OD600 (C. jejuni 81-176; DMG 2 mM + CuSO4 64 uM) of 0.01 and an OD600 (C. jejuni 81-176; DMG 2 mM + CuSO4 128 uM) of 0.01. For the same molecule, the OD600 (C. jejuni 81-176; DMG 2 mM + CuSO4 256 uM) was 0.01, the OD600 (C. jejuni 81-176; DMG 2 mM + CuSO4 512 uM) was 0.02 and the OD600 (C. jejuni 81-176; DMG 2 mM + CuSO4 1024 uM) was 0.04. The OD600 (C. jejuni 81-176; DMG 4 mM + CuSO4 0 uM) was 0.19, the OD600 (C. jejuni 81-176; DMG 4 mM + CuSO4 2 uM) was 0.26 and the OD600 (C. jejuni 81-176; DMG 4 mM + CuSO4 4 uM) was 0.15. It also gave an OD600 (C. jejuni 81-176; DMG 4 mM + CuSO4 8 uM) of 0.04, an OD600 (C. jejuni 81-176; DMG 4 mM + CuSO4 16 uM) of 0.00 and an OD600 (C. jejuni 81-176; DMG 4 mM + CuSO4 32 uM) of 0.00. For the same molecule, the OD600 (C. jejuni 81-176; DMG 4 mM + CuSO4 64 uM) was 0.01, the OD600 (C. jejuni 81-176; DMG 4 mM + CuSO4 128 uM) was 0.01 and the OD600 (C. jejuni 81-176; DMG 4 mM + CuSO4 256 uM) was 0.02. It also gave an OD600 (C. jejuni 81-176; DMG 4 mM + CuSO4 512 uM) of 0.02 and an OD600 (C. jejuni 81-176; DMG 4 mM + CuSO4 1024 uM) of 0.04.
